In this experiment the target is T1, full-length human PKCι (Homo sapiens, UniProt P41743).
T1 construct: Recombinant, full-length human PKCι expressed in Sf21 insect cells is also commercially available; purchased; host or cells: Sf21 insect cells
T1 sequence (P41743 1-596): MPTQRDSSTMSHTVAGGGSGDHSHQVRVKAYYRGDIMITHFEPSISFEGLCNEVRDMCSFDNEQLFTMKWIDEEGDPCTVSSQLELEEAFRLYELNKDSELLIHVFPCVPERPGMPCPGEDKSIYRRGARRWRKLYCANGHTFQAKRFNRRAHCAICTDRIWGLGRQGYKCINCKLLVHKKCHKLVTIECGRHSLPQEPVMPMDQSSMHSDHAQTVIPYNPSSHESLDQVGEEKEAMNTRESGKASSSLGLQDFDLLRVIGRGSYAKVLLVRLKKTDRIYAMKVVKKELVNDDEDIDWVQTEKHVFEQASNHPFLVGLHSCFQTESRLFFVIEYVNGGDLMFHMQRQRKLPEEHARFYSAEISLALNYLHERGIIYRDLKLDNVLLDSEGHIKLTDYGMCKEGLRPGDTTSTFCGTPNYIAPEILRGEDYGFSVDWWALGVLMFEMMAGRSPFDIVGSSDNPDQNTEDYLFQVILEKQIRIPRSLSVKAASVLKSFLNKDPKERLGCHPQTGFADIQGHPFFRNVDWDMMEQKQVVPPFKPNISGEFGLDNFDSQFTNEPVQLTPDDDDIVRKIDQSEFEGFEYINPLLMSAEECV
Put plainly: PKCι IC50 IMAP assay, full-length PKCι at 150 μM ATP. In kind it is biochemical. Conditions: read-out: IC50 in IMAP assay against full length PKCi at 150 μM ATP. The procedure, abridged:
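Full-length human PKCι from Sf21 cells, typically 15 pM, with 100 nM 5FAM-PKCε pseudosubstrate peptide and 150 μM ATP (5× apparent KM), 60 min at room temperature, 4% DMSO. IMAP fluorescence polarisation read-out; inhibition normalised to no-compound and no-enzyme controls, IC50 from curve fit.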
As usually defined, the IC50 is the concentration at which inhibition is half-maximal. `COc1cncc2nc(-c3ccnc(Nc4ccccc4)c3)nc(N3CCN[C@H](CF)C3)c12` [Example 235, {4-[4-((S)-3-Fluoro-methyl-piperazin-1-yl)-5-methoxy-pyrido[3,4-d]pyrimidin-2-yl]-pyridin-2-yl}-phenyl-amine]: the IC50 was in the range of 0.1 to 1 µM.

`COc1cncc2nc(-c3ccnc(Nc4ccccc4)c3)nc(N3CCN[C@@H](C4CC4)C3)c12` [Example 236]: the IC50 was 0.1 to 1 µM.

Regarding `COc1cncc2nc(-c3ccnc(Nc4c(F)ccc(F)c4F)c3)nc(N3CCN[C@@H](CF)C3)c12` [Example 237, {4-[4-((R)-3-Fluoromethyl-piperazin-1-yl)-5-methoxy-pyrido[3,4-d]pyrimidin-2-yl]-pyridin-2-yl}-(2,3,6-trifluoro-phenyl)-amine], the IC50 lay in the range of 1 to 10 µM.

Take `COc1cncc2nc(-c3ccnc(Nc4ccccc4)c3)nc(N[C@@H]3CCNC3)c12` [Example 238, [5-Methoxy-2-(2-phenylamino-pyridin-4-yl)-pyrido[3,4-d]pyrimidin-4-yl]-(R)-pyrrolidin-3-yl-amine]: the IC50 is < 0.1 µM.

For `COc1cncc2nc(-c3ccnc(Nc4cnccn4)c3)nc(N[C@@H]3CCNC3)c12` [Example 239, {5-Methoxy-2-[2-(pyrazin-2-ylamino)-pyridin-4-yl]-pyrido[3,4-d]pyrimidin-4-yl}-(R)-pyrrolidin-3-yl-amine], the IC50 was < 0.1 µM.

As for `COc1cncc2nc(-c3ccnc(NC(=O)c4cccs4)c3)nc(N[C@@H]3CCNC3)c12` [Example 240, Thiophene-2-carboxylic acid {4-[5-methoxy-4-((R)-pyrrolidin-3-ylamino)-pyrido[3,4-d]pyrimidin-2-yl]-pyridin-2-yl}-amide], the IC50 is < 0.1 µM.

Regarding `COc1cncc2nc(-c3ccnc(NC4CCCC4)c3)nc(N3CCNCC3)c12` [Example 241, Cyclopentyl-[4-(5-methoxy-4-piperazin-1-yl-pyrido[3,4-d]pyrimidin-2-yl)-pyridin-2-yl]-amine], the IC50 is < 0.1 µM.

In the case of `COc1cncc2nc(-c3ccnc(NC4CCCCC4)c3)nc(N3CCNCC3)c12` [Example 242, Cyclohexyl-[4-(5-methoxy-4-piperazin-1-yl-pyrido[3,4-d]pyrimidin-2-yl)-pyridin-2-yl]-amine], the IC50 is < 0.1 µM.

In the case of `c1cnc(Nc2cc(-c3nc(N[C@@H]4CCNC4)c4ccncc4n3)ccn2)cn1` [Example 243, {2-[2-(Pyrazin-2-ylamino)-pyridin-4-yl]-pyrido[3,4-d]pyrimidin-4-yl}-(R)-pyrrolidin-3-yl-amine], the IC50 was in the range of 1 to 10 µM.

Turning to `COc1cncc2nc(-c3ccnc(Nc4ccccc4)c3)nc(N3CCC(CO)CC3)c12` [Example 244, {1-[5-Methoxy-2-(2-phenylamino-pyridin-4-yl)-pyrido[3,4-d]pyrimidin-4-yl]-piperidin-4-yl}-methanol], the IC50 was in the range of 1 to 10 µM.

For the compound `COc1cncc2nc(-c3ccnc(Nc4ccccc4)c3)nc(N[C@@H]3CCN(CC(N)=O)C3)c12` [Example 245, 2-{3-[5-Methoxy-2-(2-phenylamino-pyridin-4-yl)-pyrido[3,4-d]pyrimidin-4-ylamino]-R-pyrrolidin-1-yl}-acetamide], the IC50 was in the range of 1 to 10 µM.

With `Clc1cncc2nc(-c3ccnc(Nc4ccccc4)c3)nc(N3CCNCC3)c12` [Example 246, [4-(5-Chloro-4-piperazin-1-yl-pyrido[3,4-d]pyrimidin-2-yl)-pyridin-2-yl]-phenyl-amine], the IC50 was in the range of 0.1 to 1 µM.

Take `Fc1ccccc1Nc1cc(-c2nc(N3CCNCC3)c3c(Cl)cncc3n2)ccn1` [Example 247, [4-(5-Chloro-4-piperazin-1-yl-pyrido[3,4-d]pyrimidin-2-yl)-pyridin-2-yl]-(2-fluoro-phenyl)-amine]: the IC50 lay in the range of 0.1 to 1 µM.

Regarding `Fc1ccccc1Nc1cc(-c2nc(N3CCNCC3)c3c(Nc4ccccc4F)cncc3n2)ccn1` [Example 248, (2-Fluoro-phenyl)-{2-[2-(2-fluoro-phenylamino)-pyridin-4-yl]-4-piperazin-1-yl-pyrido[3,4-d]pyrimidin-5-yl}-amine], the half-maximal inhibitory concentration (IC50) was < 0.1 µM.

As for `C[C@H]1CN(c2nc(-c3ccnc(Nc4ccccc4)c3)nc3cncc(Cl)c23)CCN1` [Example 250, {4-[5-Chloro-4-((S)-3-methyl-piperazin-1-yl)-pyrido[3,4-d]pyrimidin-2-yl]-pyridin-2-yl}-phenyl-amine], the IC50 fell in the range of 0.1 to 1 µM.

For the compound `CC(=O)Nc1cc(-c2nc(N3CCNCC3)c3c(Cl)cncc3n2)ccn1` [Example 251, N-[4-(5-Chloro-4-piperazin-1-yl-pyrido[3,4-d]pyrimidin-2-yl)-pyridin-2-yl]-acetamide], the IC50 fell in the range of 0.1 to 1 µM.

For `Fc1cccc(Nc2cc(-c3nc(N4CCNCC4)c4c(Cl)cncc4n3)ccn2)c1F` [Example 252, [4-(5-Chloro-4-piperazin-1-yl-pyrido[3,4-d]pyrimidin-2-yl)-pyridin-2-yl]-(2,3-difluoro-phenyl)-amine], the IC50 lay in the range of 0.1 to 1 µM.

Regarding `Fc1cccc(Nc2cc(-c3nc(N4CCNCC4)c4c(Cl)cncc4n3)ccn2)n1` [Example 253, [4-(5-Chloro-4-piperazin-1-yl-pyrido[3,4-d]pyrimidin-2-yl)-pyridin-2-yl]-(6-fluoro-pyridin-2-yl)-amine], the IC50 was < 0.1 µM.

Regarding `Fc1cccc(F)c1Nc1cc(-c2nc(N3CCNCC3)c3c(Cl)cncc3n2)ccn1` [Example 254, [4-(5-Chloro-4-piperazin-1-yl-pyrido[3,4-d]pyrimidin-2-yl)-pyridin-2-yl]-(2,6-difluoro-phenyl)-amine], the IC50 was < 0.1 µM.

Consider `Fc1ccc(Nc2cc(-c3nc(N4CCNCC4)c4c(Cl)cncc4n3)ccn2)c(F)c1` [Example 255, [4-(5-Chloro-4-piperazin-1-yl-pyrido[3,4-d]pyrimidin-2-yl)-pyridin-2-yl]-(2,4-difluoro-phenyl)-amine], for which the IC50 was in the range of 0.1 to 1 µM.

Take `Cc1ccnc(Nc2cc(-c3nc(N4CCNCC4)c4c(Cl)cncc4n3)ccn2)c1` [Example 256, [4-(5-Chloro-4-piperazin-1-yl-pyrido[3,4-d]pyrimidin-2-yl)-pyridin-2-yl]-(4-methyl-pyridin-2-yl)-amine]: the IC50 is < 0.1 µM.

On to `Fc1ccc(F)c(Nc2cc(-c3nc(N4CCNCC4)c4c(Cl)cncc4n3)ccn2)c1F` [Example 257, [4-(5-Chloro-4-piperazin-1-yl-pyrido[3,4-d]pyrimidin-2-yl)-pyridin-2-yl]-(2,3,6-trifluoro-phenyl)-amine], for which the IC50 lay in the range of 0.1 to 1 µM.

With `Fc1ccc(Nc2cc(-c3nc(N4CCNCC4)c4c(Cl)cncc4n3)ccn2)nc1` [Example 258, [4-(5-Chloro-4-piperazin-1-yl-pyrido[3,4-d]pyrimidin-2-yl)-pyridin-2-yl]-(5-fluoro-pyridin-2-yl)-amine], the IC50 is < 0.1 µM.

For the compound `FC(F)(F)c1ccnc(Nc2cc(-c3nc(N4CCNCC4)c4c(Cl)cncc4n3)ccn2)c1` [Example 259, [4-(5-Chloro-4-piperazin-1-yl-pyrido[3,4-d]pyrimidin-2-yl)-pyridin-2-yl]-(4-trifluoromethyl-pyridin-2-yl)-amine], the IC50 is < 0.1 µM.

Turning to `N#Cc1ccc(Nc2cc(-c3nc(N4CCNCC4)c4c(Cl)cncc4n3)ccn2)cn1` [Example 260, 5-[4-(5-Chloro-4-piperazin-1-yl-pyrido[3,4-d]pyrimidin-2-yl)-pyridin-2-ylamino]-pyridine-2-carbonitrile], the 50% inhibitory concentration (IC50) fell in the range of 10 to 40 µM.

As for `Fc1ccc(F)c(Nc2cc(-c3nc(N4CCNCC4)c4c(Nc5c(F)ccc(F)c5F)cncc4n3)ccn2)c1F` [Example 261, {4-Piperazin-1-yl-2-[2-(2,3,6-trifluoro-phenylamino)-pyridin-4-yl]-pyrido[3,4-d]pyrimidin-5-yl}-(2,3,6-trifluoro-phenyl)-amine], the IC50 lay within 0.1 to 1 µM.

With `Fc1ccccc1Nc1cc(-c2nc(N3CCNCC3)c3c(C4CC4)cncc3n2)ccn1` [Example 263, [4-(5-Cyclopropyl-4-piperazin-1-yl-pyrido[3,4-d]pyrimidin-2-yl)-pyridin-2-yl]-(2-fluoro-phenyl)-amine], the concentration for half-maximal inhibition (IC50) is < 0.1 µM.

Regarding `Fc1cccc(F)c1Nc1cc(-c2nc(N3CCNCC3)c3c(C4CC4)cncc3n2)ccn1` [Example 264, [4-(5-Cyclopropyl-4-piperazin-1-yl-pyrido[3,4-d]pyrimidin-2-yl)-pyridin-2-yl]-(2,6-difluoro-phenyl)-amine], the IC50 is < 0.1 µM.

As to `N#Cc1ccnc(Nc2cc(-c3nc(N4CCNCC4)c4c(C5CC5)cncc4n3)ccn2)c1` [Example 265, 2-[4-(5-Cyclopropyl-4-piperazin-1-yl-pyrido[3,4-d]pyrimidin-2-yl)-pyridin-2-ylamino]-isonicotinonitrile], the IC50 was < 0.1 µM.

Turning to `Fc1ccc(F)c(Nc2cc(-c3nc(N4CCNCC4)c4c(C5CC5)cncc4n3)ccn2)c1F` [Example 266, [4-(5-Cyclopropyl-4-piperazin-1-yl-pyrido[3,4-d]pyrimidin-2-yl)-pyridin-2-yl]-(2,3,6-trifluoro-phenyl)-amine], the IC50 is < 0.1 µM.

The values are drawn from US9914730B2, “Azaquinazoline inhibitors of Atypical protein Kinase C” (Ignyta, Inc., priority 2012, dated 2018).
